In general, IC50 refers to the concentration that inhibits the measured activity by half. As a reminder, the inhibition is the share of the control response that was lost under treatment. Read a high inhibition as a response far below the control.

Where two headings read alike, the source gives them in different places. A value given as a limit tells only on which side of the number the result lay.

This experiment has as its target T1, human AspH (His6-AspH315–758) (Homo sapiens, UniProt Q12797).
T1 construct: N-Terminally His6-tagged human AspH315–758 (His6-AspH315–758) was produced in Escherichia coli BL21 (DE3) cells; made in house; host or cells: Escherichia coli BL21 (DE3), pET-28a(+) vector
T1 sequence (Q12797 315-758): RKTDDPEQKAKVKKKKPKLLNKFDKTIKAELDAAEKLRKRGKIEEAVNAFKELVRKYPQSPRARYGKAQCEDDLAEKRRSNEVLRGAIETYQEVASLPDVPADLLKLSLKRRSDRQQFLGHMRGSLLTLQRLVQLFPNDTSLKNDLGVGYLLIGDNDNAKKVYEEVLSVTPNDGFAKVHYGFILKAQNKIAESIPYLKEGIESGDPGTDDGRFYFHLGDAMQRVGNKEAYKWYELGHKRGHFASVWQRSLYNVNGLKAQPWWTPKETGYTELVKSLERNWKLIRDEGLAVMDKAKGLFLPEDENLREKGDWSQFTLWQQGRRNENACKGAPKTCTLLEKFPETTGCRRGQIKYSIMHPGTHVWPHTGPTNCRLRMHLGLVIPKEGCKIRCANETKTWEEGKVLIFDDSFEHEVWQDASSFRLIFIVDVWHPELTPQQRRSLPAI
The experiment is described as follows: SPE-MS AspH inhibition assay (hFX-CP101-119 substrate hydroxylation). The format is biochemical.

Setting [1] is: AspH-inhibitor screening, 384-well Plate 1.
[2] abbreviates: AspH-inhibitor screening, 384-well Plate 1, substrate conversion.
The mark [3] stands for this setting: AspH-inhibitor screening, Plate 1-duplicate.
[4] abbreviates: AspH-inhibitor screening, Plate 1-duplicate, substrate conversion.
[5] abbreviates: 20 μM fixed inhibitor, 50 nM His6-AspH315–758, 1 μM hFX-CP101–119, 100 μM LAA, 3 μM 2OG, 2 μM FAS, 50 mM HEPES pH 7.5, 20 °C, relative to DMSO and 2,4-PDCA controls.

As to `CC1=C(/C=C/C(C)=C/C=C/C(C)=C/C(=O)O)C(C)(C)CCC1` [Tretinoin], under setting [1], the “Plate 1 (% inhibition)” value is 71.19%. Moreover, under setting [2], the “Plate 1 (% conversion)” value is 16.88%. Also, the “Plate 1-duplicate (% inhibition)” value under setting [3] was determined as 64.04%. In addition, under setting [4], the “Plate 1-duplicate (% conversion)” value is reported as 20.28%.

As for `C1CN1c1nc(N2CC2)nc(N2CC2)n1` [Triethylenemelamine], the “Plate 1 (% conversion)” value was determined as 46.54%, the “Plate 1 (% inhibition)” value was 6.96%, the “Plate 1-duplicate (% conversion)” value is listed as 50.74% and the “Plate 1-duplicate (% inhibition)” value is reported as 2.63%.

`O=c1[nH]c(=O)n([C@H]2C[C@H](O)[C@@H](CO)O2)cc1C(F)(F)F` [Trifluridine]: under setting [1], the “Plate 1 (% inhibition)” value is listed as 1.86%. Further, under setting [2], the “Plate 1 (% conversion)” value is reported as 48.89%. The “Plate 1-duplicate (% inhibition)” value under setting [3] is -0.91%. For the same compound, under setting [4], the “Plate 1-duplicate (% conversion)” value amounted to 52.49%.

Turning to `O=C(CCCCCCC(=O)Nc1ccc([C@H]2O[C@@H](CSc3nc(-c4ccccc4)c(-c4ccccc4)o3)C[C@@H](c3ccc(CO)cc3)O2)cc1)NO` [Tubacin, reference compound], the IC50 came out at 4.12 ± 0.5 µM (50 nM His6-AspH315–758, 1 μM hFX-CP101–119, 100 μM LAA, 3 μM 2OG, 2 μM FAS, 50 mM HEPES pH 7.5, 20 °C, read-out: IC50); 3.57 ± 0.1 µM (read-out: IC50 at 10 μM substrate, 10 μM hFX-CP101–119 and 10 μM 2OG instead of 1 μM hFX-CP101–119 and 3 μM 2OG); 4.91 ± 1.63 µM (read-out: IC50 at 20 μM Fe(II), 20 μM Fe(II) instead of 2 μM Fe(II)); 5.69 ± 0.7 µM (read-out: IC50 at 200 μM 2OG, 200 μM 2OG instead of 3 μM 2OG). The “AspH inhibition at 20 μM” value under setting [5] turned out to be 90.3 ± 3.5%. The inhibition at 20 µM under setting [5] is greater than 90%. In addition, under setting [1], the “Plate 1 (% inhibition)” value is on record as 92.77%. In addition, the “Plate 1 (% conversion)” value under setting [2] is listed as 6.91%. Further, the “Plate 1-duplicate (% inhibition)” value under setting [3] was determined as 87.89%. Besides, the “Plate 1-duplicate (% conversion)” value under setting [4] is given as 8.45%.

Regarding `CN1CCc2c(c3ccccc3n2Cc2ccc(C(=O)NO)cc2)C1.Cl` [Tubastatin A HCl], the “Plate 1 (% inhibition)” value under setting [1] is recorded as -13.29%. For the same compound, the “Plate 1 (% conversion)” value under setting [2] amounted to 55.89%. Moreover, the “Plate 1-duplicate (% inhibition)” value under setting [3] was -15.22%. Besides, the “Plate 1-duplicate (% conversion)” value under setting [4] was 59.59%.

With `CN[C@@H]1C[C@H]2O[C@@](C)([C@@H]1OC)n1c3ccccc3c3c4c(c5c6ccccc6n2c5c31)C(=O)N[C@H]4O` [UCN-01], the “Plate 1 (% inhibition)” value under setting [1] came out at 3.15%. Besides, the “Plate 1 (% conversion)” value under setting [2] is reported as 48.30%. The “Plate 1-duplicate (% inhibition)” value under setting [3] is -0.80%. Further, under setting [4], the “Plate 1-duplicate (% conversion)” value came out at 52.44%.

With `Oc1ncc(N(CCCl)CCCl)c(O)n1` [Uracil mustard], the “Plate 1 (% conversion)” value was determined as 47.47%, the “Plate 1 (% inhibition)” value is 4.95%, the “Plate 1-duplicate (% conversion)” value is recorded as 46.70% and the “Plate 1-duplicate (% inhibition)” value worked out at 10.76%.

For the compound `CC(=O)OC[C@H]1O[C@@H](n2ccc(=O)[nH]c2=O)[C@H](OC(C)=O)[C@@H]1OC(C)=O` [Uridine triacetate], the “Plate 1 (% inhibition)” value under setting [1] is 4.05%. For the same compound, the “Plate 1 (% conversion)” value under setting [2] was determined as 47.88%. Moreover, the “Plate 1-duplicate (% inhibition)” value under setting [3] is listed as 7.04%. Besides, the “Plate 1-duplicate (% conversion)” value under setting [4] worked out at 48.55%.

Regarding `N#Cc1ccc(COC[C@H]2O[C@@H](n3c(NCc4ccc(Cl)c(Cl)c4)nc4c(N)ncnc43)[C@H](O)[C@@H]2O)cc1` [VER 155008], the “Plate 1 (% inhibition)” value under setting [1] turned out to be 10.19%. Besides, the “Plate 1 (% conversion)” value under setting [2] stood at 45.05%. Under setting [3], the “Plate 1-duplicate (% inhibition)” value came out at 7.21%. Also, the “Plate 1-duplicate (% conversion)” value under setting [4] is listed as 48.47%.

In the case of `CCCC(CCC)C(=O)O` [Valproic acid], the “Plate 1 (% inhibition)” value under setting [1] turned out to be 16.50%. The “Plate 1 (% conversion)” value under setting [2] came out at 42.13%. In addition, the “Plate 1-duplicate (% inhibition)” value under setting [3] turned out to be 5.73%. Also, the “Plate 1-duplicate (% conversion)” value under setting [4] is on record as 49.20%.

With `CCCCC(=O)OCC(=O)[C@]1(O)Cc2c(O)c3c(c(O)c2[C@@H](O[C@H]2C[C@H](NC(=O)C(F)(F)F)[C@H](O)[C@H](C)O2)C1)C(=O)c1c(OC)cccc1C3=O` [Valrubicin], the “Plate 1 (% inhibition)” value under setting [1] is reported as -2.24%. Besides, under setting [2], the “Plate 1 (% conversion)” value was found to be 50.79%. Also, the “Plate 1-duplicate (% inhibition)” value under setting [3] is recorded as -16.67%. In addition, the “Plate 1-duplicate (% conversion)” value under setting [4] is given as 60.31%.

On to `COc1cc2c(Nc3ccc(Br)cc3F)ncnc2cc1OCC1CCN(C)CC1` [Vandetanib], for which the “Plate 1 (% inhibition)” value under setting [1] is -0.26%. Moreover, the “Plate 1 (% conversion)” value under setting [2] is reported as 49.87%. Besides, the “Plate 1-duplicate (% inhibition)” value under setting [3] amounted to 1.85%. Further, under setting [4], the “Plate 1-duplicate (% conversion)” value was found to be 51.12%.

For the origin of these results see article PMC7588595, “Small-molecule active pharmaceutical ingredients of approved cancer therapeutics inhibit human aspartate/asparagine-β-hydroxylase” (Bioorganic & Medicinal Chemistry, 2020).
